Assay results as given in patent US9657035B1, “Method of treating cancer and gold(III) complexes as anti-cancer agents” (KING FAHD UNIVERSITY OF PETROLEUM AND MINERALS, priority 2015, dated 2017).

Tests used:
[1] = test system: cisplatin-resistant clone A2780cis; test: Cell proliferation MTT assay, 72 h; type: cell-based, human; conditions: for IC50: A2780cis cells, 72 h, MTT, mean±SEM; for Fold resistance A2780cis/A2780 ratio: ratio of IC50 A2780cis to A2780
Description: (§1) Complexes 1 and 2 were dissolved (10 mM) in DMSO and stored at -80° C. at volumes of 500 μL or aliquots with volumes of 10 μL were taken and stored at -20° C. (used once without refreezing). The compounds were then diluted in RPMI medium immediately before use. Cisplatin was purchased from Mayne Pharma. Culture medium with the same amount of drug-free DMSO was used as a negative control. The classical Hodgkin lymphoma L-540 cell line was obtained from the German Collection of Microorganisms and Cell Cultures (Braunschweig, Germany). Human ovarian epithelial carcinoma-derived cancer cells A2780 and its cisplatin-resistant clone A2780cis were from Sigma, Inc. (St. Louis, Mo., USA). The parent cisplatin-resistant subclone A2780cis was maintained by weekly treatment with 1 μM cisplatin ([…]. Celegato, C. Borghese, M. Mongiat, A. Colombatti, and D. Aldinucci, Clin. Cancer Res. vol. 20, pp. 5496-5506, 2014, incorporated herein by reference in its entirety). Cells were cultured at 37° C. in 5% CO2 in RPMI medium supplemented with 10% heat-inactivated FBS, 0.1% (w/v) L-glutamine and antibiotics (0.2 mg/mL penicillin and streptomycin). For the cell proliferation assay, 4.0×10^3 A2780 and A2780cis cells were seeded in 96-well flat-bottomed microplates in RPMI medium (100 μL) and incubated at 37° C. in a 5% CO2 atmosphere for 24 h (to allow cell adhesion) before drug testing. The medium was then removed and replaced with fresh medium containing the compounds to be tested and cisplatin at increasing concentrations (from 1 to 100 μM) at 37° C. for 72 h. Each treatment was performed in triplicate. Cell proliferation was assayed using the MTT assay. L-540 cells (2.0×10^5/ml) were seeded in 48-well plates and treated with increasing concentrations of complex 1 and complex 2. After 72 hours, the number of viable cells was evaluated by a trypan blue dye exclusion. The IC50 values (i.e., the half maximal inhibitory concentration, representing the concentration of a substance required for 50% inhibition in vitro) were calculated using CalcuSyn software (Biosoft, Ferguson, Mo., USA) (T. C. Chou, and P. Talalay, Adv. Enzyme Regul. vol. 22, pp. 27-55, 1984, incorporated herein by reference in its entirety). The results were presented as the mean±SEM of three replicate wells from three independent experiments. The cells were imaged under an inverted microscope (Eclipse TS/100, Nikon) with a photomicrographic system (DS Camera Control Unit DS-L2). Phase contrast micrographs were taken at a magnification of 4× (for L-540 cells) and 10× (for A2780 and A2780cis cells).

[2] = test system: ovarian epithelial carcinoma-derived cancer cells A2780; test: Cell proliferation MTT assay, 72 h; type: cell-based, human; conditions: mean±SEM
Description: as §1

[3] = Kinetics of substitution reaction of gold(III) complexes with glutathione (UV-vis, 297 nm); type: physicochemical; conditions: for second-order rate constant k for the reaction with GSH: at 298K, 20 mM NaCl, 297 nm; for ΔH^† activation enthalpy, reaction with GSH / ΔS^† activation entropy, reaction with GSH: from Eyring plots
Description: All kinetics measurements were made using a UV-vis spectrophotometer (Agilent Technologies, Cary 100 UV-Vis). Scanning kinetic mode was used to investigate the change in the electronic spectra for gold(III) complexes upon interaction with GSH to determine the effective wavelength for the reactions. Then, the kinetic mode was used to monitor the reaction progress at the selected wavelength. A solution containing 0.2 mM gold(III) complexes was prepared in water, and 40 mM sodium chloride was added to improve the stability of the mononuclear-gold(III) complexes by preventing hydrolysis of the chlorides (A. Djeković, B. Petrović, Z. D. Bugarcić, R. Puchta, and R. van Eldik, Dalton Trans., vol. 41, no. 13, pp. 3633-41, 2012, incorporated herein by reference in its entirety). A series of GSH solutions was also prepared. Equal volumes of gold(III) complex solution and GSH solution were mixed, and the spectral changes recorded using the scanning kinetic mode in the range from 200 nm to 350 nm. Then, the kinetic mode was used to follow the reaction at three different temperatures. The reaction between the gold(III)-diamine complexes and the GSH ligand to form gold(III)-complexes can be illustrated in following equation: […]
The rate (k) of the described reactions can be calculated from the slope of the linear plot of kobs versus GSH concentration according to eqn (1), where the rate of the reverse reaction (k−1) is obtained from the intercept of the straight line. kobs=k[GSH]+k−1[Cl] Eqn (1)
Using Microsoft Excel, the rate constants and activation parameters were calculated from Eyring plots: […]
The kinetics of the substitution reaction between the synthesized anticancer gold(III) complexes 1 and 2 with tripeptide glutathione were investigated spectrophotometrically by monitoring the spectral changes of the gold(III) complexes in solution with excess of GSH. […] Equal volumes of the gold(III) complexes and GSH were kept until thermal equilibration was achieved and then mixed directly inside a UV cell. The changes in the absorption at a selected wavelength (297 nm) under pseudo-first order conditions as functions of the glutathione concentration and temperature were collected. The […] rate constant (k) was obtained from the linear plot of kobs versus the total GSH concentration (1). NaCl was added in excess to avoid the hydrolysis of mononuclear-gold(III) diamine chloride, but this was not found to be effective for complex 2 (FIG. 2).

[4] = test system: classical Hodgkin lymphoma L-540 cell line; test: In vitro cytotoxicity, trypan blue dye exclusion, 72 h; type: cell-based, human; conditions: L-540 cells; for IC50: trypan blue assay
Description: Complexes 1 and 2 were dissolved (10 mM) in DMSO and stored at −80° C. at volumes of 500 μL or aliquots with volumes of 10 μL were taken and stored at −20° C. (used once without refreezing). The compounds were then diluted in RPMI medium immediately before use. Cisplatin was purchased from Mayne Pharma. Culture medium with the same amount of drug-free DMSO was used as a negative control.
The classical Hodgkin lymphoma L-540 cell line was obtained from the German Collection of Microorganisms and Cell Cultures (Braunschweig, Germany). Human ovarian epithelial carcinoma-derived cancer cells A2780 and its cisplatin-resistant clone A2780cis were from Sigma, Inc. (St. Louis, Mo., USA). The parent cisplatin-resistant subclone A2780cis was maintained by weekly treatment with 1 μM cisplatin (N. Casagrande, M. Celegato, C. Borghese, M. Mongiat, A. Colombatti, and D. Aldinucci, Clin. Cancer Res. vol. 20, pp. 5496-5506, 2014, incorporated herein by reference in its entirety). Cells were cultured at 37° C. in 5% CO2 in RPMI medium supplemented with 10% heat-inactivated FBS, 0.1% (w/v) L-glutamine and antibiotics (0.2 mg/mL penicillin and streptomycin).
For the cell proliferation assay, 4.0×10^3 A2780 and A2780cis cells were seeded in 96-well flat-bottomed microplates in RPMI medium (100 μL) and incubated at 37° C. in a 5% CO2 atmosphere for 24 h (to allow cell adhesion) before drug testing. The medium was then removed and replaced with fresh medium containing the compounds to be tested and cisplatin at increasing concentrations (from 1 to 100 μM) at 37° C. for 72 h. Each treatment was performed in triplicate. Cell proliferation was assayed using the MTT assay. L-540 cells (2.0×10^5/ml) were seeded in 48-well plates and treated with increasing concentrations of complex 1 and complex 2. After 72 hours, the number of viable cells was evaluated by a trypan blue dye exclusion. […]

| IC50 [1] | IC50 ([2]; listed as 2) | IC50 ([2]; listed as (2)) | SMILES | Fold resistance A2780cis/A2780 ratio [1] | Fold resistance A2780cis/A2780 ratio ([1]; listed as cisplatin) | IC50 [2] | Ea activation energy, reaction with GSH [3] | second-order rate constant k for the reaction with GSH [3] | ΔH^† activation enthalpy, reaction with GSH [3] | ΔS^† activation entropy, reaction with GSH [3] | fold more active than complex 1 (L-540 IC50) [4] | IC50 [4] |
| --- | --- | --- | --- | --- | --- | --- | --- | --- | --- | --- | --- | --- |
| 31.1 µM | 6.98 µM | 6.9 ± 0.6 µM | NC1CCCCC1N.NC1CCCCC1N.[Au+3].[Cl-].[Cl-].[Cl-] [Complex 2, 1(R),2(R)-[(DACH)2Au]Cl3] | 4.45 | – | – | 4.54 kcal/mol | 0.31 M⁻¹ s⁻¹ | 4.06 kcal/mol | −189 JK^−1mol^−1 | 7 fold | 9.8 µM |
| 61.3 µM | – | – | NC1CCCCC1N.[Au+3].[Cl-].[Cl-].[Cl-] [Complex 1, 1(R),2(R)-[(DACH)AuCl2]Cl] | 3.90 | – | 15.7 µM | 7.65 kcal/mol | 1.14 M⁻¹ s⁻¹ | 7.17 kcal/mol | −137 JK^−1mol^−1 | – | 70.4 µM |

| SMILES | IC50 [1] | IC50 ([2]; listed as 2) | IC50 ([2]; listed as (2)) | Fold resistance A2780cis/A2780 ratio [1] | Fold resistance A2780cis/A2780 ratio ([1]; listed as cisplatin) | IC50 [2] | Ea activation energy, reaction with GSH [3] | second-order rate constant k for the reaction with GSH [3] | ΔH^† activation enthalpy, reaction with GSH [3] | ΔS^† activation entropy, reaction with GSH [3] | fold more active than complex 1 (L-540 IC50) [4] | IC50 [4] |
| --- | --- | --- | --- | --- | --- | --- | --- | --- | --- | --- | --- | --- |
| N.N.[Cl][Pt][Cl] [Cisplatin, reference compound] | 17.6 µM | – | – | 9.77 | 9.7 | 1.8 µM | – | – | – | – | – | – |
